The target of assay [1] is MiDAC complex (HDAC1/2, DNTTIP1, CDYL, MIDEAS) (Homo sapiens, UniProt Q13547+Q92769). Nature of the assay: Chemoproteomic binding profiling, K562 cell extract, SAHA/ITF2357 probe matrix (Kd app). Further details: rows headed: Kd^app CDYL; other: protein CDYL; MiDAC complex. The note with it: protein CDYL.
The target of another assay is T1, HDAC8 (Homo sapiens, UniProt Q9BY41).
T1 construct: used to probe endogenous HDACs in K562 whole cell extracts; endogenous in cells
T1 sequence (Q9BY41 whole entry): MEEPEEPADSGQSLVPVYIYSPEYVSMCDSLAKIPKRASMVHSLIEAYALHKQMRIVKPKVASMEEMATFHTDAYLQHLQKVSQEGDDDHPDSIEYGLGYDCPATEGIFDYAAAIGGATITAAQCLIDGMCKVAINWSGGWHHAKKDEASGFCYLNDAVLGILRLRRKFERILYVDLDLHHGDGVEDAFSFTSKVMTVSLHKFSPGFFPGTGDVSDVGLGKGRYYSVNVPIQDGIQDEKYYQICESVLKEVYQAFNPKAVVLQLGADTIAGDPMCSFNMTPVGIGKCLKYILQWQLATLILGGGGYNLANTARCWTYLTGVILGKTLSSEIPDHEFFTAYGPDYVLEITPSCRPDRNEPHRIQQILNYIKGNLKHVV
The description is as above. The note with it: protein HDAC8; class I HDAC.

The next assay concerns GATAD2B. Description: Competition binding assay in cell lysate, affinity matrix, MS (Mi-2/NuRD interactor). Particulars: K-562 cell lysate.
The next assay concerns MBD3. The description is as above. Particulars: K-562 cell lysate.
The next assay deals with T2, ISOC1 (Homo sapiens, UniProt Q96CN7).
T2 construct: endogenous in cells
T2 sequence (Q96CN7 1-298): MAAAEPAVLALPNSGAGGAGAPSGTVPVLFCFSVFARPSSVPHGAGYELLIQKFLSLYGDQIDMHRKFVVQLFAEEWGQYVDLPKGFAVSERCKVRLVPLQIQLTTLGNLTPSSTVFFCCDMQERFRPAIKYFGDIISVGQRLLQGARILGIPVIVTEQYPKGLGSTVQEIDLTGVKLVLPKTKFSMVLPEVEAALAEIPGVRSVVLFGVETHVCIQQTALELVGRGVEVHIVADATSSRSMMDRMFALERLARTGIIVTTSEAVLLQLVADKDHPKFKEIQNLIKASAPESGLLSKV
Description: Competition binding assay in cell lysate, affinity matrix, MS.

The next assay addresses T3, HSPD1 (Homo sapiens, UniProt P10809).
T3 construct: endogenous in cells
The assay is described as above.

In another assay the test system is RBBP7. Nature of the assay: Competition binding assay in cell lysate, affinity matrix, MS (Sin3/Mi2-NuRD interactor). Particulars: K-562 cell lysate.
The target in another assay is T4, ALDH2 (Homo sapiens, UniProt P05091).
T4 construct: endogenous in cells
T4 sequence (P05091 18-517): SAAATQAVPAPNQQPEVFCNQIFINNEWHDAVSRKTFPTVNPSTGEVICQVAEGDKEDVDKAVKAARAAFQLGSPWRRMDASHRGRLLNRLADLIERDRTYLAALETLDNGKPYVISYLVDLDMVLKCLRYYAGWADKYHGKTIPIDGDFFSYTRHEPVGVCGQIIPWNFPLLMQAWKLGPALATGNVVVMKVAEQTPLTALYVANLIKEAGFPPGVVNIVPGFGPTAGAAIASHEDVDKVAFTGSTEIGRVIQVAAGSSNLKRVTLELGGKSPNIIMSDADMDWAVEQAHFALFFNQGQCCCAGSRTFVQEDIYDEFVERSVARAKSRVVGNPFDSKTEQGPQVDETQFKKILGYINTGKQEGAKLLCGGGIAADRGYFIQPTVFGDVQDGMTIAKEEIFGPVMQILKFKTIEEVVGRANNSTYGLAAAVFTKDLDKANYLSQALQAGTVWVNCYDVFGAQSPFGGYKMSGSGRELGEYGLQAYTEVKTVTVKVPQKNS
Description: Competition binding assay in cell lysate, affinity matrix, MS.

A further assay deals with T5, PPP4C (Homo sapiens, UniProt P60510).
T5 construct: endogenous in cells
T5 sequence (P60510 1-307): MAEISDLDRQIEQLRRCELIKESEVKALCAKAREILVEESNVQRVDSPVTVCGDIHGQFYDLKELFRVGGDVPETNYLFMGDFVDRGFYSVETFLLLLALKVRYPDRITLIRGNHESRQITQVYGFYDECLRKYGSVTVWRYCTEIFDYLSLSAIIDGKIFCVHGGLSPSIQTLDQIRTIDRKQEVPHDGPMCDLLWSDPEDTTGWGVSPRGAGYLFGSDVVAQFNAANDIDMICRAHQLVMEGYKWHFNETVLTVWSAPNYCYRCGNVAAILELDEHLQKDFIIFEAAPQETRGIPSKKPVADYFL
The assay is described as above.

The target in the next assay is T6, BZW2 (Homo sapiens, UniProt Q9Y6E2).
T6 construct: endogenous in cells
T6 sequence (Q9Y6E2 1-419): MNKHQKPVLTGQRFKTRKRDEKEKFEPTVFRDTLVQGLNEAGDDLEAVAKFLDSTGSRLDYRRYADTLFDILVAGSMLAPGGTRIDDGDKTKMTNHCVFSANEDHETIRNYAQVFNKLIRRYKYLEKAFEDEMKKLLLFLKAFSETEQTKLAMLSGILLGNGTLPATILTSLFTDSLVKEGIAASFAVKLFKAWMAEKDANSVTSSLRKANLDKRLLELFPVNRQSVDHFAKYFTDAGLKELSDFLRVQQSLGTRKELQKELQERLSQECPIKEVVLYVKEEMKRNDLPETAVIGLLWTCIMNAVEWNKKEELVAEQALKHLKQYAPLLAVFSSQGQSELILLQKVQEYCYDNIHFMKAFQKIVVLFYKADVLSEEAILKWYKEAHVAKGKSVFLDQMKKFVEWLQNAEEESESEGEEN
Described as above.

A further assay deals with T7, PTER (Homo sapiens, UniProt Q96BW5).
T7 construct: endogenous in cells
T7 sequence (Q96BW5 1-349): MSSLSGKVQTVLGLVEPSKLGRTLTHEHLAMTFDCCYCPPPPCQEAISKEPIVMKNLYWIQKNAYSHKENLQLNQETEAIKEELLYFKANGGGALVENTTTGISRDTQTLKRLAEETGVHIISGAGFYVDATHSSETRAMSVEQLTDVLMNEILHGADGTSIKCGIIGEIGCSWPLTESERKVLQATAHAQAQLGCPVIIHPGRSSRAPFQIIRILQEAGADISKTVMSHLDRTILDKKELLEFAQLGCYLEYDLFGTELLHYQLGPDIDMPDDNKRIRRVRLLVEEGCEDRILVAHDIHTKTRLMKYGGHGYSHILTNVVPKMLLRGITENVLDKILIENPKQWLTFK
The description is as above.

In a further assay the test system is SMARCC2. Description: Competition binding assay in cell lysate, affinity matrix, MS (SMRT/NCoR interactor).

SMILES strings stand for the structures. Where two headings read alike, the source gives them in different places.

T3 sequence (P10809 27-573): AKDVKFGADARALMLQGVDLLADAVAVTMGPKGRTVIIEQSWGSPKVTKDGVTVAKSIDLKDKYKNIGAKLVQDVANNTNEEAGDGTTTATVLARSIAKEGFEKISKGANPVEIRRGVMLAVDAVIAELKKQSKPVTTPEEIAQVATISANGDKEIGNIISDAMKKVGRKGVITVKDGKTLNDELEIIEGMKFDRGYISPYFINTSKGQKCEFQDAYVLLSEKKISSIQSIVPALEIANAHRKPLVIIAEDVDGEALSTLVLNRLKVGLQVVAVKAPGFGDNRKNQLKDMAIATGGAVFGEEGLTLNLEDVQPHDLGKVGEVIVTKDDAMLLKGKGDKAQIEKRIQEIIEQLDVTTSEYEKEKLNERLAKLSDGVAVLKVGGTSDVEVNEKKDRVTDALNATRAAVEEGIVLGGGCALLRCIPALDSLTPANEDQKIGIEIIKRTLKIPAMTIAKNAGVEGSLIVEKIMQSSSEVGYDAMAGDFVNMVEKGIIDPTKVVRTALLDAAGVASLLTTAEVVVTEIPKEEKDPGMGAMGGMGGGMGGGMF
Chain of MiDAC complex (HDAC1/2, DNTTIP1, CDYL, MIDEAS) (Q13547 whole entry): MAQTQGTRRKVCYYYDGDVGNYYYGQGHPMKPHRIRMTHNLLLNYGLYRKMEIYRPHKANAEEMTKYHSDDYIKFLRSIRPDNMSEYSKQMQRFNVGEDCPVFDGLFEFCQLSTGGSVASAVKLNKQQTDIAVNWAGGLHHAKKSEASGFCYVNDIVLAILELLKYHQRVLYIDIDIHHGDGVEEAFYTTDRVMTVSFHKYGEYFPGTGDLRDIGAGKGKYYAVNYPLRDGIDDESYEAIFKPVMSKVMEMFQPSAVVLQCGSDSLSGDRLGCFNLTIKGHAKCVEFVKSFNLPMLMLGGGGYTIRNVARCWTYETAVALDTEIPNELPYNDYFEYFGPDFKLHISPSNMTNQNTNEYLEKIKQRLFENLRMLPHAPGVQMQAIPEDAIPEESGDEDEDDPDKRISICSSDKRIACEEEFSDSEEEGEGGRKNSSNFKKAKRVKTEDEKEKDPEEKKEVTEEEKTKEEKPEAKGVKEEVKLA
Chain of MiDAC complex (HDAC1/2, DNTTIP1, CDYL, MIDEAS) (Q92769 whole entry): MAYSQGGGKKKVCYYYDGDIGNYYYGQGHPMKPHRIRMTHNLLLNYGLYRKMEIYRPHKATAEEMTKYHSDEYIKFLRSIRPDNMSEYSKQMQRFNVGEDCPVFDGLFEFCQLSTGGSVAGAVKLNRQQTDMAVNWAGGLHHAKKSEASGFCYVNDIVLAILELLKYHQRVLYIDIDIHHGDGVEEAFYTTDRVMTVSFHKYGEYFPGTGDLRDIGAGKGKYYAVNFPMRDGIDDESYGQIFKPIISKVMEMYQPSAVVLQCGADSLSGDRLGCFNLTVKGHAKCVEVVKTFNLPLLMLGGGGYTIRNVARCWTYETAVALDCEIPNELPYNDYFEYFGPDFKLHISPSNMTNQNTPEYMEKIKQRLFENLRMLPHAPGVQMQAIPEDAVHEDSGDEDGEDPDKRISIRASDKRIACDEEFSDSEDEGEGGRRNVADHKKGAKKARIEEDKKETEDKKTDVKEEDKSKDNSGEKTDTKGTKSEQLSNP
Chain of MiDAC complex (HDAC1/2, DNTTIP1, CDYL, MIDEAS) (Q9Y232 whole entry partner): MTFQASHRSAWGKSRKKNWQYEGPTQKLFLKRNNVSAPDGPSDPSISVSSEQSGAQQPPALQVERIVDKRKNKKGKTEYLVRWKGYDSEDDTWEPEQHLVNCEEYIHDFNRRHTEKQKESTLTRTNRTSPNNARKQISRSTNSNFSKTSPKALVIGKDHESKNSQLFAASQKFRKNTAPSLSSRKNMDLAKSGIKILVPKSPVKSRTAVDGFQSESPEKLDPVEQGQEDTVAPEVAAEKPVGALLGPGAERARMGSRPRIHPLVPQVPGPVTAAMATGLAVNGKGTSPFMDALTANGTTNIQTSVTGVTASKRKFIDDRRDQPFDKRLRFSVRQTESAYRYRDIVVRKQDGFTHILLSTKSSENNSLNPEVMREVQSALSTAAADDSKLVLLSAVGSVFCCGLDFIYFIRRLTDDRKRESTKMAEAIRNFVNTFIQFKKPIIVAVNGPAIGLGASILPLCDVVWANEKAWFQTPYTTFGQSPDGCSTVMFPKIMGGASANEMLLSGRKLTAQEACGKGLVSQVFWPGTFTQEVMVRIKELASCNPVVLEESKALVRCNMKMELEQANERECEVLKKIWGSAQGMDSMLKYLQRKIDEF
Chain of MiDAC complex (HDAC1/2, DNTTIP1, CDYL, MIDEAS) (Q9H147 whole entry partner): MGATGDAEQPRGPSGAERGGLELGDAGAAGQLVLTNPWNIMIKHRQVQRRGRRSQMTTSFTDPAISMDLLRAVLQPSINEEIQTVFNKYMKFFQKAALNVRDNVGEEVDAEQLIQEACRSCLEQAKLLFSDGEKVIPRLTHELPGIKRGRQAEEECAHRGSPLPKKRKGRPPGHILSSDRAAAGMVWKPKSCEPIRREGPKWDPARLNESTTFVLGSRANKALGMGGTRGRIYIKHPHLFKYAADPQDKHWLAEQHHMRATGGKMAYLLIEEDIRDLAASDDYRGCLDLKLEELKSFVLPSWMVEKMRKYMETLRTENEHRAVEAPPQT
Chain of MiDAC complex (HDAC1/2, DNTTIP1, CDYL, MIDEAS) (Q6PJG2 whole entry partner): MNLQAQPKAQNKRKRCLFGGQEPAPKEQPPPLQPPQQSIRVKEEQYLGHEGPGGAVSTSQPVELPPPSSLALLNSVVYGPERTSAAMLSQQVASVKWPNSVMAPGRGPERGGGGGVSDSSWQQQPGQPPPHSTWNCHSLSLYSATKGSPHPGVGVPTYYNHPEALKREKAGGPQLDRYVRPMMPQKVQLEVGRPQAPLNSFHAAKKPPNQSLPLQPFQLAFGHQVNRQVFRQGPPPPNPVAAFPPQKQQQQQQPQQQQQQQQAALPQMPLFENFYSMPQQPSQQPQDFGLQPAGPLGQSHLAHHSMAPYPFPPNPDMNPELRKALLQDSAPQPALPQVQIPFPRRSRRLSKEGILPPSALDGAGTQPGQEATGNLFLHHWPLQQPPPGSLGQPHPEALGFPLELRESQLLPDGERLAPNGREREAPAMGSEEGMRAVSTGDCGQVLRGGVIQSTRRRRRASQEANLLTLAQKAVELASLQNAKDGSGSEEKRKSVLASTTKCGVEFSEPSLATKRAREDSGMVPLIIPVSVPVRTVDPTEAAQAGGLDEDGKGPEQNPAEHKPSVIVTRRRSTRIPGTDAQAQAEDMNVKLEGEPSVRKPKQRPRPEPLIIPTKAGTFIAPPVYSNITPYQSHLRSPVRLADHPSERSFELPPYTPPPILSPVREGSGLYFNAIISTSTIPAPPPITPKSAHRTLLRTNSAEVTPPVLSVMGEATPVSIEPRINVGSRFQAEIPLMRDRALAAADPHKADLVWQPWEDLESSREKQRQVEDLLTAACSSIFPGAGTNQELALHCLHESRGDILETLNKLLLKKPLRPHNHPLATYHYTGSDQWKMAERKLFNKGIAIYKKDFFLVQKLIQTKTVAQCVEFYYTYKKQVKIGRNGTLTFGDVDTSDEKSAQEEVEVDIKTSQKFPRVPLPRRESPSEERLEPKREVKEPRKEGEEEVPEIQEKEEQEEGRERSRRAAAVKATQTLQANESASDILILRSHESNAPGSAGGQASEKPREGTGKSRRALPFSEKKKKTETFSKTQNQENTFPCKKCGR

As to `CCCCOc1ccc(CC(=O)NO)cc1` [bufexamac], the Kd in assay [1] was determined as 151 µM; at HDAC8, 243 µM.
One may read the IC50 as the concentration at which inhibition is half-maximal. `Nc1ccccc1NC(=O)c1ccc(CNC(=O)OCc2cccnc2)cc1` [MS-275]: the IC50 in the assay with GATAD2B was 300 µM; in the assay on MBD3 it was 300 µM; at ISOC1 (read-out: IC50), at least 300 µM; on HSPD1 (read-out: IC50), at least 300 µM; with RBBP7, 300 µM; on ALDH2 (read-out: IC50), at least 300 µM. Also, the IC50 at PPP4C (read-out: IC50) was at least 300 µM; at BZW2 (read-out: IC50) it was at least 300 µM; on PTER it was at least 300 µM; with SMARCC2 (K-562 cell lysate), 300 µM.
With `O=C(CCCCCCC(=O)Nc1ccccc1)NO` [SAHA, suberoylanilide hydroxamic acid], the IC50 in the assay on GATAD2B was 2.5 µM; with MBD3, 0.61 µM; on ISOC1 (IC50, ISOC1, K-562 cell lysate), 1.1 µM; at ISOC1 (IC50, ISOC1, mix of Jurkat and Ramos cell lysates) it was 2.19 µM; on HSPD1 (IC50, HSPD1, mix of Jurkat and Ramos cell lysates), 10 µM; at HSPD1 (read-out: IC50), at least 10 µM. Moreover, the half-inhibitory concentration (IC50) is 10 µM in the assay on RBBP7; 0.63 µM at ALDH2 (IC50, ALDH2, K-562 cell lysate); 4.81 µM at ALDH2 (IC50, ALDH2, mix of Jurkat and Ramos cell lysates); 10 µM at PPP4C (IC50, PPP4C, mix of Jurkat and Ramos cell lysates); at least 10 µM at PPP4C (read-out: IC50); 3.07 µM at BZW2 (IC50, BZW2, K-562 cell lysate). The IC50 was 10 µM at BZW2 (IC50, BZW2, mix of Jurkat and Ramos cell lysates); at least 10 µM at PTER; 10 µM on PTER (IC50, PTER, mix of Jurkat and Ramos cell lysates); 10 µM in the assay on SMARCC2 (K-562 cell lysate); 10 µM in the assay on SMARCC2 (mix of Jurkat and Ramos cell lysates).
With `Nc1ccccc1NC(=O)CCCCCCC(=O)Nc1ccccc1` [BML-210], the Kd (in assay [1]; on HDAC8) was above 85 µM throughout.

The record behind these values is patent US20130071854A1, “METHODS FOR THE IDENTIFICATION AND CHARACTERIZATION OF HDAC INTERACTING COMPOUNDS” (priority 2009, published 2013).
